Like-named read-outs stand apart in the source and are kept apart here.
Assay: Bioavailability in the baboon: plasma levels of omoconazole after oral administration (microbiological agar diffusion assay, test germ Candida macedoniensis)
Type: in vivo, babouin
Conditions: fasted baboons
Method: La biodisponibilité des compositions pharmaceutiques selon l'invention a été étudiée chez le babouin en comparaison avec le produit (I) seul.
Les études ont été conduites à la dose de 100 mg/kg d'omoconazole et les produits ont été administrés aux singes à jeun par sonde gastrique. […] Les dosages des taux plasmatiques d'omoconazole ont été effectués par une méthode microbiologique réalisée à l'aide d'une technique de diffusion en milieu gélosé avec comme germe test Candida macedoniensis.
Des essais ont été effectués selon la même méthode, avec les formulations des exemples 4, 5, 6, 9 et 14. Pour les 3 premiers cas, les formulations ont été administrées telles quelles (solution) tandis que les compositions des exemples 9 et 14 et l'omoconazole ont été administrés dans des gélules No. 2. […]

SMILES: C/C(=C(/OCCOc1ccc(Cl)cc1)c1ccc(Cl)cc1Cl)n1ccnc1 [Omoconazole]
- AUC (baboon, 100 mg/kg omoconazole oral, mean of 4 animals, Ex 4, 5, 6 given as such, Ex 9, 14 and omoconazole in No. 2 capsules, read-out: Aire sous la courbe): 11600 ng·h/mL
- Cmax (baboon, 100 mg/kg omoconazole oral, mean of 4 animals, Ex 4, 5, 6 given as such, Ex 9, 14 and omoconazole in No. 2 capsules, read-out: Concentration maximale): 1350 ng/mL
- Tmax (baboon, 100 mg/kg omoconazole oral, mean of 4 animals, Ex 4, 5, 6 given as such, Ex 9, 14 and omoconazole in No. 2 capsules, read-out: Temps de C. Max.): 5.5 h
- AUC at 24 h (baboon, po, 100 mg/kg omoconazole by gastric tube, mean of 3 animals, sampling up to 24 h, read-out: aire sous la courbe): 11500 ng·h/mL
- Cmax (100 mg/kg omoconazole by gastric tube, mean of 3 animals): 1,35 µg/ml
